The values below come from patent publication US20100331349A1, “Use of gamma-aminobutyric acid to mask or reduce an unpleasant flavour impression and preparations containing gamma-aminobutyric” (Symrise GmbH & Co. KG, priority 2004, published 2010).

Assay [1] is described as follows: Masking or reduction of unpleasant (bitter) flavour impression in preparations, rated by a group of experts. Conditions: against caffeine, quinine, naringin, potassium chloride, magnesium sulfate, beta-lactam antibiotics. How it is done: To quantify the reduction in the bitter impression with the use of γ-aminobutyric acid, the bitterness of a 500 ppm caffeine solution (comparative solution; not according to the invention) and of four samples according to the invention containing 500 ppm of caffeine and differing amounts of γ-aminobutyric acid was determined by a group of experts (rating 0 [not bitter] to 10 [extremely bitter]).
To quantify the reduction in the bitter impression, the bitterness of a 12.5 ppm quinine hydrochloride solution (comparative solution; not according to the invention) and of eight samples according to the invention containing 12.5 ppm of quinine hydrochloride and differing amounts of γ-aminobutyric acid was determined by a group of experts (rating 0 [not bitter] to 5 [extremely bitter]).
To quantify the reduction in the bitter impression, the bitterness of (a) a 500 ppm caffeine solution (basic solution), (b) a sample containing 500 ppm of caffeine, 100 ppm of homoeriodictyol sodium salt and 20 ppm of γ-aminobutyric acid, and (c) a sample containing 500 ppm of caffeine and 20 ppm of γ-aminobutyric acid was determined by a group of experts (rating 1 [not bitter] to 10 [extremely bitter]). […]

For assay [2] the following is noted: WO 00/21390; cited from earlier work.

On to `NCCCC(=O)O` [γ-aminobutyric acid], for which, in assay [1], the “concentration in preparations at which the unpleasant, in particular bitter, flavour impression is reduced or completely suppressed” value is on record as “less than 0.1 wt. %”.

As for polyglutamic acid, in assay [2], the “concentration needed as bitterness-masking agent” value is on record as “around 1 wt. %”.
